Structures can show the parent of a compound that is named as a salt. Where two headings read alike, the source gives them in different places.

What all share (format): cell-based, human
One data set has as its system cancer cell lines. Kind of data set: Cell viability analysis (WST-1) on cancer cell lines. To be noted: drug 10 μM, 72 hours, WST-1; Table 3. (Tetrazolium assays rely on reduction of a dye to a coloured formazan, in cell work by metabolically active cells.)
The test system of data set [1] is HI650 (Lung Adenocarcinoma). Kind of data set: Cell viability analysis, lung cancer HI650. The note with it: for viability at 10 µM: Homo sapiens.
The test system of data set [2] is A549 (Lung Adenocarcinoma). Kind of data set: Cell viability analysis, lung cancer A549. The note with it: for viability at 10 µM: Homo sapiens.
The subject of data set [3] is AGS (Gastric Adenocarcinoma). As to the kind of experiment: Cell viability analysis, gastric cancer AGS. The note with it: for viability at 10 µM: Homo sapiens.
In data set [4] the test system is MKN-45 (Gastric Adenocarcinoma). As to the kind of experiment: Cell viability analysis, gastric cancer MKN-45. The note with it: for viability at 10 µM: Homo sapiens.
For data set [5], the system named is HepG2 (Hepatocellular Carcinoma). As to the kind of experiment: Cell viability analysis, hepatic cancer HepG2. To be noted: for viability at 10 µM: Homo sapiens.
In data set [6] the test system is LoVo (Colorectal Adenocarcinoma). Kind of data set: Cell viability analysis, colon cancer LoVo. To be noted: Homo sapiens, LoVo, 72 h, read-out: cell viability (survival rate), LoVo, drug 10 μM, 72 hours, WST-1, OD450 nm.
Data set [7] relates to A375 (Amelanotic Melanoma). Kind of data set: Cell viability analysis, skin cancer A375. The note with it: for viability at 10 µM: Homo sapiens.
Data set [8] relates to HeLa (Cervix Adenocarcinoma). As to the kind of experiment: Cell viability analysis, cervical cancer HeLa. To be noted: Homo sapiens, HeLa.
Data set [9] deals with PC3 (p53−) (Prostate Adenocarcinoma). Kind of data set: Cell viability analysis, prostate cancer PC3. The note with it: for viability at 10 µM: Homo sapiens.
For data set [10], the system named is TSGH-8301 (Urinary Bladder Carcinoma). As to the kind of experiment: Cell viability analysis, bladder cancer TSGH-8301. The note with it: for viability at 10 µM: Homo sapiens.
Data set [11] has as its system HL-60 (Acute Promyelocytic Leukemia). Kind of data set: Cell viability analysis, leukemia HL-60. The note with it: for viability at 10 µM: Homo sapiens.
The subject of data set [12] is MCF7 (Mammary Gland, Adenocarcinoma). Kind of data set: Cell viability analysis, breast cancer MCF7. To be noted: Homo sapiens, MCF7, 72 h.
Where [13] appears, read: NCI-H1650, 72 h, read-out: cell viability (survival rate), H1650, drug 10 μM, 72 hours, WST-1, OD450 nm.
Setting [14] is: A549, 72 h, read-out: cell viability (survival rate), A549, drug 10 μM, 72 hours, WST-1, OD450 nm.
The mark [15] stands for this setting: 72 h, read-out: cell viability (survival rate), AGS, drug 10 μM, 72 hours, WST-1, OD450 nm.
Setting [16] is: MKN-45, 72 h, read-out: cell viability (survival rate), MKN-45, drug 10 μM, 72 hours, WST-1, OD450 nm.
Setting [17] is: HepG2, 72 h, read-out: cell viability (survival rate), HepG2, drug 10 μM, 72 hours, WST-1, OD450 nm.
Setting [18] is: A-375, 72 h, read-out: cell viability (survival rate), A375, drug 10 μM, 72 hours, WST-1, OD450 nm.
[19] abbreviates: 72 h, read-out: cell viability (survival rate), HeLa, drug 10 μM, 72 hours, WST-1, OD450 nm.
Where [20] appears, read: 72 h, read-out: cell viability (survival rate), PC3, drug 10 μM, 72 hours, WST-1, OD450 nm.
[21] abbreviates: 72 h, read-out: cell viability (survival rate), TSGH, drug 10 μM, 72 hours, WST-1, OD450 nm.
The mark [22] stands for this setting: HL-60, 72 h, read-out: cell viability (survival rate), HL-60, drug 10 μM, 72 hours, WST-1, OD450 nm.
Setting [23] is: read-out: cell viability (survival rate), MCF7, drug 10 μM, 72 hours, WST-1, OD450 nm.
The mark [24] stands for this setting: drug 10 μM, 72 hours, WST-1, OD450 nm.

Regarding `OC(Cn1cncn1)(Cn1cncn1)c1ccc(F)cc1F` [Fluconazole], the “inhibition effect on different cancer cell lines” value in the data set with cancer cell lines is given as “significant inhibition effect”. Moreover, the viability at 10 µM in data set [1] (setting [13]) amounted to 45.3%; in [2] (setting [14]) it was 125%; in data set [3] (setting [15]) it was 50.2%; in [4] (setting [16]), 76.2%; in [5] (setting [17]) it was 97.4%; in data set [6], 102%. Further, the viability at 10 µM was determined as 76.9% in data set [7] (setting [18]); 79.2% in data set [8] (setting [19]); 97.7% in data set [9] (setting [20]); 66.1% in [10] (setting [21]); 106% in data set [11] (setting [22]).
For the compound `CC(C)(C)C(=O)C(Oc1ccc(Cl)cc1)n1ccnc1` (stereo not drawn) [Climbazole], the “inhibition effect on different cancer cell lines” value in the data set with cancer cell lines is listed as “significant inhibition effect”. For the same compound, the viability at 10 µM worked out at 84.2% in data set [1] (NCI-H1650, drug 10 μM, 72 hours, WST-1, OD450 nm, read-out: cell viability (survival rate), H1650); 72.7% in data set [2] (A549, drug 10 μM, 72 hours, WST-1, OD450 nm, read-out: cell viability (survival rate), A549); 93.3% in data set [3] (drug 10 μM, 72 hours, WST-1, OD450 nm, read-out: cell viability (survival rate), AGS); 97.7% in [4] (MKN-45, drug 10 μM, 72 hours, WST-1, OD450 nm, read-out: cell viability (survival rate), MKN-45); 94.4% in [5] (HepG2, drug 10 μM, 72 hours, WST-1, OD450 nm, read-out: cell viability (survival rate), HepG2); 70.6% in data set [7] (A-375, drug 10 μM, 72 hours, WST-1, OD450 nm, read-out: cell viability (survival rate), A375). Moreover, the viability at 10 µM in data set [8] (drug 10 μM, 72 hours, WST-1, OD450 nm, read-out: cell viability (survival rate), HeLa) worked out at 94%; in [9] (drug 10 μM, 72 hours, WST-1, OD450 nm, read-out: cell viability (survival rate), PC3) it was 99.6%; in [10] (drug 10 μM, 72 hours, WST-1, OD450 nm, read-out: cell viability (survival rate), TSGH) it was 102%; in data set [11] (HL-60, drug 10 μM, 72 hours, WST-1, OD450 nm, read-out: cell viability (survival rate), HL-60), 111%.
Turning to `Oc1ccc(C=Cc2cc(O)cc(O)c2)cc1` [Resveratrol], in the data set on cancer cell lines, the “inhibition effect on different cancer cell lines” value is recorded as “significant inhibition effect”. Besides, the viability at 10 µM is 54.6% in data set [1] (setting [13]); 72.5% in data set [2] (setting [14]); 47.9% in [3] (setting [15]); 91.8% in data set [4] (setting [16]); 83.2% in [6]; 53% in [7] (setting [18]). For the same compound, the viability at 10 µM in data set [8] (setting [19]) came out at 108%; in data set [9] (setting [20]), 75%; in [10] (setting [21]), 85.3%; in data set [12] (setting [23]) it was 71.8%; in data set [11] (setting [22]), 76.4%.
Regarding `Cc1cc(-n2c(=O)[nH]c(=O)n(C)c2=O)ccc1Oc1ccc(SC(F)(F)F)cc1` [toltrazuril], the “inhibition effect on different cancer cell lines” value in the data set on cancer cell lines is on record as “significant inhibition effect”. Further, the viability at 10 µM was found to be 70.9% in [1] (NCI-H1650, 72 h, drug 10 μM, 72 hours, WST-1, OD450 nm, read-out: cell viability (survival rate), H1650); 61.2% in data set [2] (A549, 72 h, drug 10 μM, 72 hours, WST-1, OD450 nm, read-out: cell viability (survival rate), A549); 26.3% in data set [3] (72 h, drug 10 μM, 72 hours, WST-1, OD450 nm, read-out: cell viability (survival rate), AGS); 62.2% in data set [5] (HepG2, 72 h, drug 10 μM, 72 hours, WST-1, OD450 nm, read-out: cell viability (survival rate), HepG2); 61.9% in data set [6]; 27.7% in data set [7] (A-375, 72 h, drug 10 μM, 72 hours, WST-1, OD450 nm, read-out: cell viability (survival rate), A375). Further, the viability at 10 µM is 70.1% in [8] (72 h, drug 10 μM, 72 hours, WST-1, OD450 nm, read-out: cell viability (survival rate), HeLa); 30.3% in data set [9] (72 h, drug 10 μM, 72 hours, WST-1, OD450 nm, read-out: cell viability (survival rate), PC3); 34.8% in data set [10] (72 h, drug 10 μM, 72 hours, WST-1, OD450 nm, read-out: cell viability (survival rate), TSGH); 67.4% in data set [12] (drug 10 μM, 72 hours, WST-1, OD450 nm, read-out: cell viability (survival rate), MCF7); 73.1% in data set [11] (HL-60, 72 h, drug 10 μM, 72 hours, WST-1, OD450 nm, read-out: cell viability (survival rate), HL-60).
With `O=C(N[C@H](CO)[C@H](O)c1ccc([N+](=O)[O-])cc1)C(Cl)Cl` [Chloramphenicol (Chloromycetin), Chloramphenicol], the “inhibition effect on different cancer cell lines” value with cancer cell lines is on record as “significant inhibition effect”. Moreover, the viability at 10 µM stood at 75.6% in data set [1] (setting [13]); 96.3% in data set [2] (setting [14]); 90.6% in [3] (setting [15]); 66.8% in [4] (setting [16]); 93.6% in [5] (setting [17]); 114% in data set [7] (setting [18]). The viability at 10 µM in data set [8] (setting [19]) amounted to 85%; in [9] (setting [20]), 120%; in data set [10] (setting [21]) it was 83.5%; in [12] (setting [23]) it was 89.1%; in data set [11] (setting [22]), 105%.
Consider `O=c1[nH]c(=O)n([C@H]2C[C@H](O)[C@@H](CO)O2)cc1I` [Idoxuridine], for which the “inhibition effect on different cancer cell lines” value with cancer cell lines is recorded as “significant inhibition effect”. Also, the viability at 10 µM in data set [1] (setting [13]) was 82.8%; in data set [2] (setting [14]), 58.5%; in data set [3] (setting [15]), 68.7%; in data set [4] (setting [16]), 80.8%; in data set [5] (setting [17]), 122%; in data set [6], 72.7%. Also, the viability at 10 µM is 81.5% in data set [7] (setting [18]); 57.8% in [9] (setting [20]); 88% in data set [10] (setting [21]); 47.3% in [12] (setting [23]); 96.1% in [11] (setting [22]).
As for Caspofungin acetate, in the data set with cancer cell lines, the “inhibition effect on different cancer cell lines” value is given as “significant inhibition effect”. Besides, the “cell viability (survival rate), H1650” value in [1] (setting [24]) was determined as 37.1. Moreover, the “cell viability (survival rate), A549” value in data set [2] (setting [24]) was 78.4. The “cell viability (survival rate), AGS” value in [3] (setting [24]) came out at 94.2. Besides, the “cell viability (survival rate), MKN-45” value in [4] (setting [24]) is reported as 36.4. Also, the “cell viability (survival rate), HepG2” value in data set [5] (setting [24]) was 95.3. For the same compound, the “cell viability (survival rate), A375” value in data set [7] (setting [24]) is on record as 70.5. Besides, the “cell viability (survival rate), PC3” value in data set [9] (setting [24]) stood at 59.4. In [10] (setting [24]), the “cell viability (survival rate), TSGH” value was found to be 123.7. In addition, the “cell viability (survival rate), HL-60” value in [11] (setting [24]) worked out at 124.4.
`NC[C@@H]1O[C@H](O[C@H]2[C@@H](O)[C@H](O[C@@H]3[C@@H](O)[C@H](N)C[C@H](N)[C@H]3O[C@H]3O[C@H](CO)[C@@H](O)[C@H](O)[C@H]3N)O[C@@H]2CO)[C@H](N)[C@@H](O)[C@@H]1O` [Paromomycin Sulfate]: the “inhibition effect on different cancer cell lines” value in the data set with cancer cell lines is listed as “significant inhibition effect”. Moreover, the viability at 10 µM in data set [1] (setting [13]) stood at 99%; in data set [2] (setting [14]) it was 78.2%; in data set [3] (setting [15]), 80.2%; in data set [4] (setting [16]) it was 92.1%; in [6] it was 67.1%; in data set [7] (setting [18]), 91.4%. The viability at 10 µM in [8] (setting [19]) came to 96.2%; in data set [9] (setting [20]), 146%; in [10] (setting [21]) it was 106%; in data set [12] (setting [23]) it was 112%; in [11] (setting [22]) it was 87.1%.

By viability is commonly meant a read-out of living cells in per cent, often relative to untreated cells.

Values taken from patent US10105357B2, “Indication of antibiotic drugs for preparation of cancer inhibition pharmaceutical composition” (LAUNX BIOMEDICAL CO., LTD., priority 2014, dated 2018).
